The source of these data is the supplement of paper PMC11208160.

The nature of this series: recombinant barcode read abundance after kanamycin selection (control-corrected) (log10(CPM+1)); higher = more efficient recombination; sequences stand for … in AGTGCAGAGAAAATCGGCCAGTTTTCTCTGCCTGCAGTCCGCATGCCGT…AGATTTATGCAGCGGACTGCCTTTCTCCCAAAGTGATAAACCGGACAGTATCATGGACCGGTTTTCCCGGTAATCCGTATTTGCAAGGTTGGTTTCACT; site = the 11-nt target. The gist of the method:
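In E. coli, a pooled library matched targets to IS621 bridge RNA target-binding loops and was introduced alongside a donor plasmid. Cells went onto chloramphenicol/ampicillin/kanamycin with 0.1 mM IPTG or onto chloramphenicol/ampicillin LB agar as control, in duplicate. Recombination efficiency, from recombinant-junction barcodes as counts per million, is averaged and control-corrected. It is reported as log10(CPM+1).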
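Further: IS621 recombinase and bridge RNA in Escherichia coli cells.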

For “GCCCAATCTTGGGTTCTAACCTGTTGCCT (site GCCCCATCTAG)”, the “recombinant barcode read abundance (log10)” value came out at 0.115. To “GCCCAATCTTGGGTTCTAACCTGTTGCCT (site GCCCGATCTAG)” belongs 0.176; to “GCCCAATCTTGGGTTCTAACCTGTTGCCT (site GCCCTATCTAG)”, 0.195. With “GCCCAGCCTTGGGTTCTAACCTGTTGCGG (site ACCAAGCCTCC)”, the “recombinant barcode read abundance (log10)” value came to 0.0607. Regarding “GCCCAGCCTTGGGTTCTAACCTGTTGCGG (site GCCCAGCCTCC)”, the “recombinant barcode read abundance (log10)” value worked out at 2.71. To “GCCCTCCCTTGGGTTCTAACCTGTTGCCT (site GCACTCCCTAG)” belongs 0.558; to “GCCCTCCCTTGGGTTCTAACCTGTTGCCT (site GCCCTCCCTAG)”, 1.77.

“GCCCTCCCTTGGGTTCTAACCTGTTGCCT (site GCGCTCCCTAG)”: the “recombinant barcode read abundance (log10)” value is 0.0524.

Consider “GCCCTCCCTTGGGTTCTAACCTGTTGCCT (site GCTCTCCCTAG)”, for which the “recombinant barcode read abundance (log10)” value amounted to 0.597. With “GCCGGCTCTTGGGTTCTAACCTGTTGCCT (site GACGGCTCTAG)” the figure was 0.182.

As for “GCCGGCTCTTGGGTTCTAACCTGTTGCCT (site GCCGGCTCTAG)”, the “recombinant barcode read abundance (log10)” value is 1.35. To “GCCTAGTCTTGGGTTCTAACCTGTTGCCA (site GCCTAGTCTTG)” belongs 1.13; to “GCCTAGTCTTGGGTTCTAACCTGTTGCCA (site TCCTAGTCTTG)”, 0.0302. Take “GCCTCGGCTTGGGTTCTAACCTGTTGCCT (site GCATCGGCTAG)”: the “recombinant barcode read abundance (log10)” value was determined as 0.0156. With “GCCTCGGCTTGGGTTCTAACCTGTTGCCT (site GCCTCGGCTAG)” the figure was 0.134. Consider “GCCTCGGCTTGGGTTCTAACCTGTTGCCT (site GCGTCGGCTAG)”, for which the “recombinant barcode read abundance (log10)” value came out at 0.0495. To “GCCTCGGCTTGGGTTCTAACCTGTTGCCT (site GCTTCGGCTAG)” belongs 0.0313; to “GCCTCGTCTTGGGTTCTAACCTGTTGCCT (site GCATCGTCTAG)”, 0.0638; to “GCCTCGTCTTGGGTTCTAACCTGTTGCCT (site GCCTCGTCTAG)”, 0.68. Consider “GCCTCGTCTTGGGTTCTAACCTGTTGCCT (site GCGTCGTCTAG)”, for which the “recombinant barcode read abundance (log10)” value stood at 0.206. With “GCCTCGTCTTGGGTTCTAACCTGTTGCCT (site GCTTCGTCTAG)”, the “recombinant barcode read abundance (log10)” value was determined as 0.0462. With “GCCTGAGCTTGGGTTCTAACCTGTTGCCT (site GCATGAGCTAG)”, the “recombinant barcode read abundance (log10)” value stood at 0. With “GCCTGAGCTTGGGTTCTAACCTGTTGCCT (site GCCTGAGCTAG)”, the “recombinant barcode read abundance (log10)” value worked out at 0.303. With “GCCTGAGCTTGGGTTCTAACCTGTTGCCT (site GCGTGAGCTAG)” the figure was 0.272; with “GCCTGAGCTTGGGTTCTAACCTGTTGCCT (site GCTTGAGCTAG)”, 0; with “GCCTGGGCTTGGGTTCTAACCTGTTGCCG (site GCCAGGGCTCG)”, 0.0298. For the sequence “GCCTGGGCTTGGGTTCTAACCTGTTGCCG (site GCCCGGGCTCG)”, the “recombinant barcode read abundance (log10)” value turned out to be 0.516. With “GCCTGGGCTTGGGTTCTAACCTGTTGCCG (site GCCGGGGCTCG)” the figure was 0.114; with “GCCTGGGCTTGGGTTCTAACCTGTTGCCG (site GCCTGGGCTCG)”, 0.72; with “GCCTGGGCTTGGGTTCTAACCTGTTGCCT (site GCCTGGGCTAG)”, 0.317. To “GCCTGGGCTTGGGTTCTAACCTGTTGCCT (site GCCTTGGCTAG)” belongs 0.438; to “GCCTTGGCTTGGGTTCTAACCTGTTGCCT (site GCCTGGGCTAG)”, 0.195; to “GCCTTGGCTTGGGTTCTAACCTGTTGCCT (site GCCTTGGCTAG)”, 0.572. To “GCGAACCCTTGGGTTCTAACCTGTTGCTT (site GCGAACCCTAA)” belongs 1.47; to “GCGAACCCTTGGGTTCTAACCTGTTGCTT (site TCGAACCCTAA)”, 0.0595; to “GCGACTCCTTGGGTTCTAACCTGTTGCTT (site GCGACTCCTAA)”, 0.0299.

As to “GCGACTCCTTGGGTTCTAACCTGTTGCTT (site GCGACTCCTAG)”, the “recombinant barcode read abundance (log10)” value was 0.0916. With “GCGCACACTTGGGTTCTAACCTGTTGCCT (site ACGCACACTAG)” the figure was 0.851; with “GCGCACACTTGGGTTCTAACCTGTTGCCT (site CCGCACACTAG)”, 0.206. Take “GCGCACACTTGGGTTCTAACCTGTTGCCT (site GCGCACACTAG)”: the “recombinant barcode read abundance (log10)” value came out at 1.05. As to “GCGCACACTTGGGTTCTAACCTGTTGCCT (site TCGCACACTAG)”, the “recombinant barcode read abundance (log10)” value is 0.319. To “GCGCATCCTTGGGTTCTAACCTGTTGCCT (site GCGAATCCTAG)” belongs 0.719; to “GCGCATCCTTGGGTTCTAACCTGTTGCCT (site GCGCATCCTAG)”, 0.753; to “GCGCATCCTTGGGTTCTAACCTGTTGCCT (site GCGGATCCTAG)”, 0.306. With “GCGCATCCTTGGGTTCTAACCTGTTGCCT (site GCGTATCCTAG)” the figure was 0.0569; with “GCGCGTTCTTGGGTTCTAACCTGTTGCCT (site GCGAGCTCTAG)”, 0.054; with “GCGCGTTCTTGGGTTCTAACCTGTTGCCT (site GCGCGTTCTAG)”, 1.2.

As to “GCGGCTTCTTGGGTTCTAACCTGTTGCCT (site GAGGCTTCTAG)”, the “recombinant barcode read abundance (log10)” value was found to be 0.0638. For the sequence “GCGGCTTCTTGGGTTCTAACCTGTTGCCT (site GCGGCTTCTAG)”, the “recombinant barcode read abundance (log10)” value came out at 0.868. With “GCGGCTTCTTGGGTTCTAACCTGTTGCCT (site GGGGCTTCTAG)” the figure was 0.0151; with “GCGGCTTCTTGGGTTCTAACCTGTTGCCT (site GTGGCTTCTAG)”, 0.121; with “GCGTCGGCTTGGGTTCTAACCTGTTGCCT (site GCATCGGCTAG)”, 0.474. To “GCGTCGGCTTGGGTTCTAACCTGTTGCCT (site GCCTCGGCTAG)” belongs 0.177; to “GCGTCGGCTTGGGTTCTAACCTGTTGCCT (site GCGTCGGCTAG)”, 0.183. To “GCGTCGGCTTGGGTTCTAACCTGTTGCCT (site GCTTCGGCTAG)” belongs 0.405. Regarding “GCGTGCCCTTGGGTTCTAACCTGTTGCCT (site CCGTGCCCTAG)”, the “recombinant barcode read abundance (log10)” value is 0.552. Consider “GCGTGCCCTTGGGTTCTAACCTGTTGCCT (site GCGTGCCCTAG)”, for which the “recombinant barcode read abundance (log10)” value worked out at 0.82. Turning to “GCTAACCCTTGGGTTCTAACCTGTTGCCT (site ACTAAACCTAG)”, the “recombinant barcode read abundance (log10)” value came out at 0.5. With “GCTAACCCTTGGGTTCTAACCTGTTGCCT (site GCTAACCCTAG)” the figure was 1.18.
